Experimental data taken from patent US20140235518A1, “AQUEOUS LIQUIDS CONTAINING AN ORGANIC COMPOUND AND AN N-(2-HYDROXYALKYL) SUBSTITUTED N-ALKYLAMINE” (TAMINCO, priority 2011, published 2014).

Key:
[1] = Comparative emulsion stability (p-terphenyl oil / 20% aqueous AAA); type: physicochemical; conditions: 10 g p-terphenyl oil + 10 g 20% wt/wt aqueous AAA, 10 s vortex
Source text: The emulsion prepared with aqueous N-butyldiethanolamine (BDEA, C/OH ratio=4) was compared to an otherwise identical emulsion prepared with 20% aqueous N-(2-hydroxybutyl)-N-(2-hydroxyethyl)-N-ethylamine (HBHEEA, C/OH ratio=4).

[2] = system: microbial population of spoiled coolant; assay: Biostability comparison, soluble oil emulsion diluted in spoiled coolant (CFU by oxygen pressure); type: cell-based; conditions: diluted 20 to 1 in spoiled coolant water
Protocol: (§1) The 100 ml test solutions were initially challenged with 10 ml of a lab maintained rancid soluble oil containing 50% tramp oil with an overall biological count of 8,800,000 CFU/ml. The degree of biological growth throughout the experiment was measured by the HMB-IV (Biotech International, Needville, Tex.) method for determination of the aerobic and facultative biological activity within a liquid metalworking fluid sample. This test method is based on the principle that most of the microorganisms in challenged metalworking fluids produce catalase while they are active. The addition of a known amount of a formulated HMB-IV oxidizing agent (hydrogen peroxide, buffer and chelating chemicals) to a standard volume of the sample fluid in a sealed test tube allows for an amount of oxygen proportional to the amount of active bacteria to be produced via the chemical reaction between active catalase enzyme and the hydrogen peroxide. A calibrated device is used to measure the amount of oxygen that is produced via the change in the pressure of the headspace within a test tube over a period of 15 minutes.
A challenge test comparison of the following soluble oil emulsion was carried out over several days.
The above concentrate formula was used with either 3 or 5 parts of one of the test amines. The soluble oil concentrate was diluted 20 to 1 in stagnant water made up from spoiled coolant (cultured from an original stock of rancid metalworking coolant used in a ferrous alloy cutting operation) which was in turn prepared by diluting 10% of a 60,000,000 CFU per ml of stock spoiled coolant with 90% tap water that had been allowed to air out for 24 hours. The challenge solution, which in this experiment is a control, was calculated to initially contain 6,000,000 CFU per ml microbial population. By the next day, the microbial content of the challenge solution had increased to 13,000,000 CFU per ml. By the end of the trial, the microbial content of the challenge solution had declined to 7,400,000 CFU. The concentration of microbes was determined by oxygen pressure development as described in Example 4.

[3] = Interfacial tension by drop weight measurements; type: physicochemical; conditions: 22° C.
Protocol: Drop weight measurements (i.e., the weight of a drop of one fluid as it is carefully released into another immiscible fluid) were used to evaluate the air/liquid and liquid/liquid interfacial tensions of 5% BDEA(aq) (butyldiethanolamine with C/OH ratio of 4), 5% HBHEEA(aq) (hydroxybutyl hydroxyethyl ethylamine with C/OH ratio of 4) and 2% HBHEBA(aq) (hydroxybutyl hydroxyethyl butylamine with C/OH ratio of 5) solutions at RT (22° C.). Note that a solution of 2% wt/wt of HBHEBA in water takes several minutes to form. About 1% wt/wt of HBHEBA dissolves in water fairly rapidly with stirring, while up to approximately 3% wt/wt can eventually be dissolved if stirring is continued for a longer period of time. The following relationship (oftentimes referred to as Tate's law) is used to relate drop weight to the interfacial tension between the drop fluid and the fluid being “dropped” into:
γ=mactual(1−ρfluid/ρdrop)g/(2πr)
Drop weights were taken 10 at a time and averaged. Three replicates of the drop average were taken to insure accuracy. […] The Table below contains drop weight data of some aqueous AAA solutions as dropped into air and into decane (ρ=0.73 g/ml):
The data for DI water dropped into air is used to standardize the pipette. The surface tension of water/air at 22° C. and 1 bar absolute P is 72 dynes/cm.
Using this value in the equation for DI water gives an orifice radius of 1.2 mm (0.12 cm). All of the measurements were carried out with the same pipette. Using the value of 1.2 mm as the radius of the pipette orifice allows for accurate calculation of the unknown interfacial tensions. Both BDEA and HBHEEA have the same MW and the same total C/OH ratio of 4, but both molecules display distinct interfacial tension properties. […] AAA's of identical total C/OH ratio and identical MW but with differing distribution of hydrophobic and hydrophilic regions display unique properties with respect to solubility, viscosity, volatility, impact on emulsion stability, and assistance to biostability.

[4] = system: microorganisms in challenged metalworking fluids; assay: Challenge with amines as sole biostabilizing agent (HMB-IV catalase/oxygen pressure CFU); type: cell-based; conditions: formula with 4.97% amine at 4% aqueous dilution; for CFU one hour after first challenge: CFU/ml
Protocol: (§2) The biostability of three fluids containing different amines was assessed in a challenge test format. The three amines used were DCHA (dicyclohexylamine), DBAE (dibutylaminoethanol) and HBHEBA (hydroxybutyl hydroxyethyl butylamine). The test solutions were approximately 100 ml in volume and maintained at RT. The following formula was used at 4% aqueous dilution for testing:
as §1, with “The addition of a known amount of a formulated HMB-IV oxidizing agent (hydrogen peroxide, buffer and chelating chemicals) to a standard volume of the sample fluid in a sealed test tube allows for an amount of oxygen proportional to the amount of active bacteria to be produced via the chemical reaction between active catalase enzyme and the hydrogen peroxide.” left out
(§3) The second challenge at 3 days was 20 ml of a rancid semi-synthetic coolant with a CFU/ml reading of 10,000,000. A volume of 20 ml was necessary to bring the volume back to the original 100 ml (each CFU/ml measurement removes 10 ml of coolant). The third challenge at 10 days was an additional 20 ml of the 10,000,000 CFU/ml rancid semi-synthetic coolant.

[5] = Condition of challenged test solutions (pH, putrification odor, appearance); conditions: formula with 4.97% amine at 4% aqueous dilution
Protocol: as §2, §3

[6] = Dissolution of HBHEBA in water; type: physicochemical; conditions: RT
Protocol: Drop weight measurements (i.e., the weight of a drop of one fluid as it is carefully released into another immiscible fluid) were used to evaluate the air/liquid and liquid/liquid interfacial tensions of 5% BDEA(aq) (butyldiethanolamine with C/OH ratio of 4), 5% HBHEEA(aq) (hydroxybutyl hydroxyethyl ethylamine with C/OH ratio of 4) and 2% HBHEBA(aq) (hydroxybutyl hydroxyethyl butylamine with C/OH ratio of 5) solutions at RT (22° C.). Note that a solution of 2% wt/wt of HBHEBA in water takes several minutes to form. About 1% wt/wt of HBHEBA dissolves in water fairly rapidly with stirring, while up to approximately 3% wt/wt can eventually be dissolved if stirring is continued for a longer period of time. The following relationship (oftentimes referred to as Tate's law) is used to relate drop weight to the interfacial tension between the drop fluid and the fluid being “dropped” into: […]

[7] = AAA @ 3% in concentrate (1500 ppm diluted)
[8] = AAA @ 5% in concentrate (2500 ppm diluted)
[9] = 5% (aq) solution dropped into Air
[10] = 5% (aq) solution dropped into Decane

Row | Structure (SMILES) | CFU per ml after 1 day [2, 7] [CFU per ml × 10^6] | CFU per ml after 4 days [2, 7] [CFU per ml × 10^6] | CFU per ml after 1 day [2, 8] [CFU per ml × 10^6] | CFU per ml after 4 days [2, 8] [CFU per ml × 10^6] | γ Drop to Fluid (air/liquid interfacial tension) [3, 9] [dynes/cm] | γ Drop to Fluid (liquid/liquid interfacial tension) [3, 10] [dynes/cm] | CFU @ 3 days (2nd challenge) [4] | CFU @ 7 days (4 days after 2nd challenge) [4] | CFU @ 10 days (3rd challenge) [4] | CFU @ 14 days (4 days after 3rd challenge) [4] | CFU @ 25 days (7 days after fresh dilution) [4] | CFU @ 90 days (60 day idle period simulation) [4] | CFU one hour after first challenge [4] | pH of test solution @ 25 days [5] | pH of test solution @ 90 days [5] | pH of test solution after first challenge [5] | other results
1 | CCCCN(CCO)CCO [BDEA, N-butyldiethanolamine] | 11 | 9.0 | 3.5 | 2.1 | 41 | 13 |  |  |  |  |  |  |  |  |  |  | Time to complete phase separation of emulsion [1]: ≤ 30 min; Time to significant oil coalescence of emulsion [1]: ≤ 15 min
2 | CCCCN(CCO)CCCC [DBAE, N,N-dibutylaminoethanol] |  |  |  |  |  |  | 310,000 CFU | 2,100,000 CFU | 4,000,000 CFU | 2,500,000 CFU | 2,900,000 CFU | 8,100,000 CFU | 740,000 CFU | 8.2 | 7.7 | 9.4 | 
3 | C1CCC(NC2CCCCC2)CC1 [DCHA, dicyclohexylamine] |  |  |  |  |  |  | 410,000 CFU | 3,000,000 CFU | 3,900,000 CFU | 3,900,000 CFU | 4,000,000 CFU | 33,000,000 CFU | 630,000 CFU | 8.2 | 7.7 | 9.1 | 
4 | CCCCN(CCO)CC(O)CC (stereo not shown) [HBHEBA, N-(2-hydroxybutyl)-N-(2-hydroxyethyl)-N-butylamine] | 7.3 | 5.0 | 3.0 | 1.2 |  |  | 140,000 CFU | 3,300,000 CFU | 4,500,000 CFU | 2,900,000 CFU | 1,700,000 CFU | 7,700,000 CFU | 610,000 CFU | 8.2 | 7.6 | 9.1 | γ Drop to Fluid (air/liquid interfacial tension) ([3]; 2% (aq) solution dropped into Air): 34 dynes/cm; γ Drop to Fluid (liquid/liquid interfacial tension) ([3]; 2% (aq) solution dropped into Decane): 8 dynes/cm; Amount that can eventually be dissolved in water ([6]; stirring continued for a longer period of time): approximately 3 % wt/wt; Amount dissolving in water fairly rapidly ([6]; with stirring): About 1 % wt/wt
5 | CCC(O)CN(CC)CCO (stereo not shown) [HBHEEA, N-(2-hydroxybutyl)-N-(2-hydroxyethyl)-ethylamine] |  |  |  |  | 37 | 17 |  |  |  |  |  |  |  |  |  |  | Emulsion stability (visual) [1]: remained completely opaque with no visible signs of coalescence for several hours
